# Laboratory results published in patent US20180296564A1, “METHOD FOR PREVENTING AND/OR TREATING CHRONIC TRAUMATIC ENCEPHALOPATHY - III” (Eustralis Pharmaceuticals Limited (trading as Pressura …, priority 2013, published 2018).
# Tested on: tau phosphorylation
# Assay: Tau phosphorylation after concussive injury in the rat (immunohistology)
# Format: in vivo
# Settings: rat concussion model; 3 mg/kg intravenously at 30 min after induction of injury; assessed 3 days after the concussive event
# Excerpt: Note that concussive injury in the rat causes extensive tau phosphorylation (B) by 3 days after the concussive event compared to non-injured animals (A). […] Having established that hyperphosphorylated tau accumulates perivascularly following concussive injury, we used an animal model of concussion to investigate whether concussion causes perivascular release of substance P. We developed a rodent model of concussion to replicate the concussive event (Donkin et al., 2004, 7th International Neurotrauma Symposium, pp 75-78, Medimond Publishers, Bologna, Italy) and subsequently determined whether substance P was released after such an event. There was a clear increase in brain perivascular substance P immunoreactivity after the concussive event (FIG. 2). […] Having shown that mechanical injury causes release of substance P after concussive injury, we then investigated whether Emend® reduces tau hyperphosphorlation after concussive injury. […] Note that concussive injury in the rat causes extensive tau phosphorylation (B) by 3 days after the concussive event compared to non-injured animals (A). […] Thus, administration of Emend® prevents tau hyperphosphorylation and thus prevents the development of CTE.
smiles,measurement,value
"C[C@@H](O[C@H]1OCCN(Cc2nc(=O)[nH][nH]2)[C@H]1c1ccc(F)cc1)c1cc(C(F)(F)F)cc(C(F)(F)F)c1 [Emend®, 5-([(2R,3S)-2-((R)-1-[3,5-bis(trifluoromethyl)phenyl]ethoxy)-3-(4-fluorophenyl)morpholino]methyl)-1H-1,2,4-triazol-3(2H)-one]",effect on tau phosphorylation after concussive injury,almost complete inhibition of tau phosphorylation
